By IC50 is commonly meant the concentration that inhibits the measured activity by half.

This test has as its target T1, PAR1 (Homo sapiens, UniProt P25116).
T1 sequence (P25116 22-425): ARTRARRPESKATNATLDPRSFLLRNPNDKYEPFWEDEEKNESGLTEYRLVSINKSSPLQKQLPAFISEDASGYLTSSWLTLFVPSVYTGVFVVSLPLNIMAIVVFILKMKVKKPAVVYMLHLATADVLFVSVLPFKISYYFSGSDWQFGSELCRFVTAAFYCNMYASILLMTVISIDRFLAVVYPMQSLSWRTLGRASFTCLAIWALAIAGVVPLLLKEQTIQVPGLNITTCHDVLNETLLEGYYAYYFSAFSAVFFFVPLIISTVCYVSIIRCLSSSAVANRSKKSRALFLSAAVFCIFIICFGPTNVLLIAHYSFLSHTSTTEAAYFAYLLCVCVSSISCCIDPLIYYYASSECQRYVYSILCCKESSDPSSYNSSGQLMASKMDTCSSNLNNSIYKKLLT
Put plainly: Calcium ion influx experiment (FLIPR), PAR1 inhibition activity, HEK293-Ga15-PAR1 cell strain, agonist haTRAP. In kind it is cell-based. As to conditions: HEK293-Ga15-PAR1 cells; for IC50: calcium influx, agonist haTRAP 3 μM, 4-PL fit; for Slope: slope of 4-PL dosage-effect curve, haTRAP 3 μM. As to the method:
Embodiment 6: Determination of Biological Activity (PAR1 Inhibition Activity) of the Compound
An HEK293-Ga15-PAR1 cell strain (HD Biosciences stable cell strain) was quickly taken out of a liquid nitrogen tank, and shaken continuously in a 37° C. water bath until it was completely melted. A cell suspension was quickly added into a pre-heated culture medium (90% DMEM+10% FBS+1× Pen/Strep), placed in a centrifuge and centrifuged at 1000 rpm for 10 minutes. A centrifugal tube was taken out, the supernatant was discarded, and the fresh pre-heated culture medium was added into the centrifugal tube, cells were resuspended, and the cell suspension was added into a culture dish and cultured at 37° C. with 5% of CO2.
When the cells reached 80-90% of the culture dish, the cells were gently washed with 0.05% of trypsin-EDTA, part of digestive juice was removed, then the cells were incubated for 2-3 min, the digestion was terminated with the new culture medium, the cells were gently blew with a gun head, and the cells were resuspended. In general, the passage was performed according to 1:4 to 1:8 every 2 to 3 days.
On the day before the experiment, 1× Matrigel (Brand: BD, Cat #: 356230) was added into a clean 384-well cell plate, incubated at 37° C. for 30 minutes, and then inverted and centrifuged at 500 rpm for 30 seconds to remove the coating solution.
The cell precipitate was digested and collected, resuspended in the culture medium to 3×10^5 cells/mL, added into the coated cell plate according to 50 μL per well and then incubated at 37° C. with 5% of CO2 overnight.
On the day of the experiment, the fresh experimental buffer solution and 0.5× Calcium 4 (Brand: Molecular Devices, Cat #: R8141) loading buffer solution were prepared.
The 30 mM DMSO stock solution was first diluted with DMSO to 10 mM, and then diluted 4 times from 10 mM for a total of 10 concentrations. Ten DMSO concentration gradients of the compound were added into the experimental buffer solution at a ratio of 1:20 to prepare a working solution of the compound (5 times the final reaction concentration). After that, the working solution of the compound was transferred into a 384-well compound plate according to the layout in the following drawing for later use.
Positive control: 40 mM DMSO stock solution of the reference compound SCH79797 was diluted to 2 mM;
Negative control: 5% of DMSO prepared from the experimental buffer solution
10 mM DMSO stock of the agonist haTRAP was diluted with the experimental buffer solution to 18 μM (6 times the final reaction concentration 3 μM), and then transferred into a 384-well compound plate, at least at 25 μl/well for later use.
The cell plate incubated overnight was taken out, the cell culture medium was removed by centrifugation at 300 rpm for 30 seconds, 20 μL of freshly prepared 0.5× Calcium 4 loading buffer solution was added into every well and then incubation was performed at 37° C. with 5% of CO2 for 1 hour.
The compound working solution was transferred from the compound plate to the cell plate at 5 μL/well according to the layout, then placed at 37° C. again and incubated with 5% of CO2 for 15 minutes.
The agonist was transferred from the 384-well compound plate (FLIPR) to the cell plate at 5 μL/well according to the program set by FLIPR, and the fluorescent signals in each well of the cell plate were simultaneously read.
The inhibition rate (%) of the compound in each well on the cell plate was calculated according to the fluorescence signal values of the positive control and the negative control on each cell plate. […] The inhibition rates and the corresponding concentrations of the compounds obtained by calculation were introduced into the relevant software for graphing, and the IC50 values of the compounds were calculated according to the 4-PL dosage-effect formula. The IC50 result of the reference compound is also one of standards for testing the quality of every experiment.

For `C[C@@]1(C=O)[C@H](O)CC[C@@]2(C)[C@H](/C=C/c3ccc(-c4cccc(F)c4)cn3)C3(CC[C@H]12)CO3` (stereo partly drawn) [Compound I-7], the IC50 is 3.52 µM and the Slope worked out at 1.02.

For the molecule `C[C@]1(CO)[C@H]2CCC(CO)[C@@H](CCc3ccc(-c4cccc(F)c4)cn3)[C@]2(C)CC[C@H]1O` (stereo partly drawn) [Compound I-3], the IC50 came out at 8.91 µM.

With `COC[C@@]1(C)[C@H]2CCC3(CO3)[C@@H](/C=C/c3ccc(-c4cccc(F)c4)cn3)[C@]2(C)CC[C@H]1O` (stereo partly drawn) [Compound I-5], the IC50 is 7.07 µM and the Slope is reported as 2.59.

With `CO[C@@H]1CC[C@]2(C)[C@H](CCC3(CO3)[C@H]2/C=C/c2ccc(-c3cccc(F)c3)cn2)[C@]1(C)CO` (stereo partly drawn) [Compound I-6], the IC50 turned out to be 11 µM and the Slope was 1.53.

`C[C@]1(CO)[C@H]2CCC3(CO3)[C@@H](/C=C/c3ccc(-c4cccc(F)c4)cn3)[C@]2(C)CC[C@H]1O` (stereo partly drawn) [Compound I-1]: the IC50 was found to be 7.76 µM.

In the case of `C[C@]1(CO)[C@H]2CCC3(CO3)[C@@H](/C=C/c3ccc(-c4cccc(C(F)(F)F)c4)cn3)[C@]2(C)CC[C@H]1O` (stereo partly drawn) [Compound I-2], the IC50 came out at 7.95 µM.

Consider `C[C@@]1(C(=O)O)C(=O)CC[C@@]2(C)[C@H](/C=C/c3ccc(-c4cccc(F)c4)cn3)C3(CC[C@H]12)CO3` (stereo partly drawn) [Compound I-10], for which the IC50 is 19.7 µM and the Slope came to 1.23.

For `CC(C)c1ccc(Cn2ccc3c4c(N)nc(NC5CC5)nc4ccc32)cc1` [SCH79797, reference compound], the IC50 turned out to be 8.71 µM and the Slope was found to be 0.95.

Consider `C[C@@]12CC[C@@H](O)[C@@](C)(C(=O)O)[C@H]1CCC1(CO1)[C@H]2/C=C/c1ccc(-c2cccc(F)c2)cn1` (stereo partly drawn) [Compound I-8], for which the IC50 was 31.6 µM and the Slope was 1.97.

Regarding `COC(=O)[C@]1(C)[C@H](O)CC[C@@]2(C)[C@H](/C=C/c3ccc(-c4cccc(F)c4)cn3)C3(CC[C@@H]21)CO3` (stereo partly drawn) [Compound I-9], the IC50 was 0.66 µM and the Slope was 0.97.

With `C[C@]1(CO)[C@H]2CCC(CO)[C@@H](CCc3ccc(-c4cccc(C(F)(F)F)c4)cn3)[C@]2(C)CC[C@H]1O` (stereo partly drawn) [Compound I-4], the IC50 came out at 8.76 µM.
